# Results published in patent US8946230B2, “Aryl- and heteroaryl- nitrogen-heterocyclic compounds as PDE10 inhibitors” (Amgen Inc., priority 2010, dated 2015).
# Molecular target: T1, PDE10 (UniProt Q8CA95)
# T1 sequence (Q8CA95 1-790): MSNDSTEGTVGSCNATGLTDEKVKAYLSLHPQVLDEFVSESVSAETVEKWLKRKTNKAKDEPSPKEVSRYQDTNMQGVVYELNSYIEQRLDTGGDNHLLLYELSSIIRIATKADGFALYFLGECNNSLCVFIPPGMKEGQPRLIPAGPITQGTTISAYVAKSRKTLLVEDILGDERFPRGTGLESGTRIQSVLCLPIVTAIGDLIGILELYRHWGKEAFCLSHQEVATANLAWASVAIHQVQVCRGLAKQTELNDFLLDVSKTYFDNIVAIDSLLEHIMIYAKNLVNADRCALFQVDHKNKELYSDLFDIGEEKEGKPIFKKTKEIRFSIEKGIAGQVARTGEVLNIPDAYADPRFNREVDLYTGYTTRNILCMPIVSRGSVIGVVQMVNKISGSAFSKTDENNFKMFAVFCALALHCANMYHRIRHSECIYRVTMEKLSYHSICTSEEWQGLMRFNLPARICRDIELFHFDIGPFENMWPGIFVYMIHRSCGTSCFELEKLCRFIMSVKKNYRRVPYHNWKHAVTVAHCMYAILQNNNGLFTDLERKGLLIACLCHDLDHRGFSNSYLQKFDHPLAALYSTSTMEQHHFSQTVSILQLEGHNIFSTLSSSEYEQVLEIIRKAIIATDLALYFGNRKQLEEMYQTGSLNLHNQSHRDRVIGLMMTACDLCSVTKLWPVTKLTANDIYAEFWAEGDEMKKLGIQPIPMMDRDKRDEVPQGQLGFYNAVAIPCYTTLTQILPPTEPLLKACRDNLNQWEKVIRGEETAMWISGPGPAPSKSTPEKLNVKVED
# Test: PDE10 enzyme inhibition, IMAP TR-FRET assay (Example A: MPDE10A7 Enzyme Activity and Inhibition)
# Type: biochemical
# Settings: Table 1A, Examples 11-56; read-out: PDE10 IC50
# Procedure: MPDE10A7 Enzyme Activity and Inhibition Enzyme Activity. An IMAP TR-FRET assay was used to analyze the enzyme activity (Molecular Devices Corp., Sunnyvale Calif.). 5 μL of serial diluted PDE10A (BPS Bioscience, San Diego, Calif.) or tissue homogenate was incubated with equal volumes of diluted fluorescein labeled cAMP or cGMP for 60 min in 384-well polystyrene assay plates (Corning, Corning, N.Y.) at room temperature. After incubation, the reaction was stopped by adding 60 μL of diluted binding reagents and was incubated for 3 hours to overnight at room temperature. The plates were read on an Envision (Perkin Elmer, Waltham, Mass.) for time resolved fluorescence resonance energy transfer. The data were analyzed with GraphPad Prism (La Jolla, Calif.). Enzyme Inhibition. To check the inhibition profile, 5 μL of serial diluted compounds were incubated with 5 μL of diluted PDE10 enzyme (BPS Bioscience, San Diego, Calif.) or tissue homogenate in a 384-well polystyrene assay plate (Corning, Corning, N.Y.) for 30 min at room temperature. After incubation, 10 μL of diluted fluorescein labeled cAMP or cGMP substrate were added and incubated for 60 min at room temperature. The reaction was stopped by adding 60 μL of diluted binding reagents and plates were read on an Envision (Perkin Elmer, Waltham, Mass.) for time resolved fluorescence resonance energy transfer. The data were analyzed with GraphPad Prism (La Jolla, Calif.).
row,Structure (SMILES),IC50 [nM]
1,"Cc1ccc2[nH]c(C3CN(c4nccnc4Cl)C3)nc2c1 [Example 48, 2-(1-(3-chloropyrazin-2-yl)azetidin-3-yl)-5-methyl-1H-benzo[d]imidazole]",456
2,"Cc1cccc(-c2nccnc2N2CC(c3nc4cc(Cl)ccc4[nH]3)C2)c1 [Example 25, 5-chloro-2-[1-(3-m-tolyl-pyrazin-2-yl)-azetidin-3-yl]-1H-benzoimidazole]",15
3,"O=C(NC1CCOCC1)c1nccnc1N1CC(c2nc3cc(Cl)ccc3[nH]2)C1 [Example 36, 3-[3-(5-chloro-1H-benzoimidazol-2-yl)-azetidin-1-yl]-pyrazine-2-carboxylic acid (tetrahydro-pyran-4-yl)-amide]",3280
4,"O=C(NCC1CCOCC1)c1cccnc1N1CC(c2nc3cc(Cl)ccc3[nH]2)C1 [Example 23, 2-[3-(5-chloro-1H-benzoimidazol-2-yl)-azetidin-1-yl]-N-(tetrahydro-pyran-4-ylmethyl)-nicotinamide]",37600
5,"Clc1ccc2[nH]c(C3CN(c4nc(Cl)ncc4Cl)C3)nc2c1 [Example 55, 5-chloro-2-(1-(2,5-dichloropyrimidin-4-yl)azetidin-3-yl)-1H-benzo[d]imidazole]",520
6,"COc1cccc(-c2nccnc2N2CC(c3nc4cc(Cl)ccc4[nH]3)C2)c1 [Example 28, 5-chloro-2-{1-[3-(3-methoxy-phenyl)-pyrazin-2-yl]-azetidin-3-yl}-1H-benzoimidazole]",26
7,"O=C(c1cccnc1N1CC(c2nc3cc(Cl)ccc3[nH]2)C1)N1CCC1 [Example 16, Azetidin-1-yl-{2-[3-(5-chloro-1H-benzoimidazol-2-yl)-azetidin-1-yl]-pyridin-3-yl}-methanone]",1180
8,"CN(c1ccccc1)c1nccnc1N1CC(c2nc3cc(Cl)ccc3[nH]2)C1 [Example 41, 3-(3-(5-chloro-1H-benzo[d]imidazol-2-yl)azetidin-1-yl)-N-methyl-N-phenylpyrazin-2-amine]",74
9,"O=C(NCCc1ccccc1)c1cccnc1N1CC(c2nc3cc(Cl)ccc3[nH]2)C1 [Example 20, 2-[3-(5-chloro-1H-benzoimidazol-2-yl)-azetidin-1-yl]-N-phenethyl-nicotinamide]",1680
10,"CC(C)NC(=O)c1cccnc1N1CC(c2nc3cc(Cl)ccc3[nH]2)C1 [Example 21, 2-[3-(5-chloro-1H-benzoimidazol-2-yl)-azetidin-1-yl]-N-isopropyl-nicotinamide]",4780
11,"Clc1ccc2[nH]c(C3CN(c4nccnc4C4=CCOCC4)C3)nc2c1 [Example 51, 5-chloro-2-(1-(3-(3,6-dihydro-2H-pyran-4-yl)pyrazin-2-yl)azetidin-3-yl)-1H-benzo[d]imidazole]",442
12,"Clc1ccc2[nH]c(C3CN(c4nccnc4-c4cccnc4)C3)nc2c1 [Example 33, 5-chloro-2-[1-(3-pyridin-3-yl-pyrazin-2-yl)-azetidin-3-yl]-1H-benzoimidazole]",538
13,"O=C(c1cccnc1N1CC(c2nc3cc(Cl)ccc3[nH]2)C1)N1CCOCC1 [Example 17, {2-[3-(5-chloro-1H-benzoimidazol-2-yl)-azetidin-1-yl]-pyridin-3-yl}-morpholin-4-yl-methanone]",32900
14,"Clc1ccc2[nH]c(C3CN(c4ncccc4C4CCOCC4)C3)nc2c1 [Example 56, 5-chloro-2-(1-(3-(tetrahydro-2H-pyran-4-yl)pyridin-2-yl)azetidin-3-yl)-1H-benzo[d]imidazole]",987
15,"Clc1ccc2[nH]c(C3CN(c4nccnc4Cl)C3)nc2c1 [Example 53, 5-chloro-2-(1-(3-chloropyrazin-2-yl)azetidin-3-yl)-1H-benzo[d]imidazole]",1160
16,"O=C(NCc1ccccc1)c1cccnc1N1CC(c2nc3cc(Cl)ccc3[nH]2)C1 [Example 19, N-Benzyl-2-[3-(5-chloro-1H-benzoimidazol-2-yl)-azetidin-1-yl]-nicotinamide]",4650

# The next lines start with the values.
row,IC50 [nM],Structure (SMILES)
1,630,"Clc1ccc2[nH]c(C3CN(c4nccnc4Nc4ccccc4)C3)nc2c1 [Example 40, 3-(3-(5-chloro-1H-benzo[d]imidazol-2-yl)azetidin-1-yl)-N-phenylpyrazin-2-amine]"
2,161,"N#Cc1ccc2[nH]c(C3CN(c4nccnc4-c4ccccc4)C3)nc2c1 [Example 14, 2-[1-(3-phenyl-pyrazin-2-yl)-azetidin-3-yl]-1H-benzoimidazole-5-carbonitrile]"
3,305,"CN1CCN(c2nccnc2N2CC(c3nc4cc(Cl)ccc4[nH]3)C2)CC1 [Example 43, 5-chloro-2-(1-(3-(4-methylpiperazin-1-yl)pyrazin-2-yl)azetidin-3-yl)-1H-benzo[d]imidazole]"
4,39.8,"Cc1ccc2[nH]c(C3CN(c4nccnc4-c4ccccc4)C3)nc2c1 [Example 39, 5-methyl-2-(1-(3-phenylpyrazin-2-yl)azetidin-3-yl)-1H-benzo[d]imidazole]"
5,134,"Clc1ccc2[nH]c(C3CN(c4nccnc4N4CCOCC4)C3)nc2c1 [Example 50, 4-(3-(3-(5-chloro-1H-benzo[d]imidazol-2-yl)azetidin-1-yl)pyrazin-2-yl)morpholine]"
6,535,"N#Cc1ccc2[nH]c(C3CCN(c4nccnc4N4CCOCC4)C3)nc2c1 (stereo not shown) [Example 12, 2-[1-(3-Morpholin-4-yl-pyrazin-2-yl)-pyrrolidin-3-yl]-1H-benzoimidazole-5-carbonitrile]"
7,4330,"COc1ccccc1-c1nccnc1N1CC(c2nc3cc(Cl)ccc3[nH]2)C1 [Example 27, 5-chloro-2-{1-[3-(2-methoxy-phenyl)-pyrazin-2-yl]-azetidin-3-yl}-1H-benzoimidazole]"

# Same assay, conditions: Table 2A, Examples 61-64; read-out: IC50
row,IC50 [nM],Structure (SMILES)
1,358,"OCC1CCN(c2nccnc2N2CC(c3ccc4ccccc4n3)C2)CC1 [Example 62, {1-[3-(3-Quinolin-2-yl-azetidin-1-yl)-pyrazin-2-yl]-piperidin-4-yl}-methanol]"
2,641,"CC1CCN(c2nccnc2N2CC(c3ccc4ccccc4n3)C2)C1 (stereo not shown) [Example 63, 2-{1-[3-(3-Methyl-pyrrolidin-1-yl)-pyrazin-2-yl]-azetidin-3-yl}-quinoline]"
3,3120,"CC1CCN(c2nccnc2N2CC(c3ccc4ccccc4n3)C2)CC1 [Example 61, 2-{1-[3-(4-Methyl-piperidin-1-yl)-pyrazin-2-yl]-azetidin-3-yl}-quinoline]"

# Same assay, conditions: read-out: IC50
row,Structure (SMILES),IC50 [nM]
1,"N#Cc1ccc2[nH]c(C3CCN(c4nccnc4N4CCOCC4)CC3)nc2c1 [Example 1B, 2-[1-(3-MORPHOLIN-4-YL-PYRAZIN-2-YL)-PIPERIDIN-4-YL]-1H-BENZOIMIDAZOLE-5-CARBONITRILE]",2000
2,"Clc1ccc2[nH]c(C3CN(c4cc(C5CCOCC5)ncn4)C3)nc2c1 [Example 6, 5-CHLORO-2-(1-(6-(TETRAHYDRO-2H-PYRAN-4-YL)PYRIMIDIN-4-YL)AZETIDIN-3-YL)-1H-BENZO[D]IMIDAZOLE]",1280
3,"Clc1ccc2[nH]c(C3CN(c4ccnc(N5CCOCC5)n4)C3)nc2c1 [Example 1D, 4-(4-(3-(5-CHLORO-1H-BENZO[D]IMIDAZOL-2-YL)AZETIDIN-1-YL)PYRIMIDIN-2-YL)MORPHOLINE]",645
4,"O=C(c1cccnc1N1CC(c2nc3cc(Cl)ccc3[nH]2)C1)N1CC(O)C1 [Example 3, {2-[3-(5-CHLORO-1H-BENZOIMIDAZOL-2-YL)-AZETIDIN-1-YL]-PYRIDIN-3-YL}-(3-HYDROXY-AZETIDIN-1-YL)-METHANONE]",549
5,"CNC(=O)c1nccnc1N1CC(c2nc3cc(Cl)ccc3[nH]2)C1 [Example 4, 3-[3-(5-CHLORO-1H-BENZOIMIDAZOL-2-YL)-AZETIDIN-1-YL]-PYRAZINE-2-CARBOXYLIC ACID METHYLAMIDE]",3880
6,"Clc1ccc2[nH]c(C3CN(c4nccnc4C4CCOCC4)C3)nc2c1 [Example 8, 5-CHLORO-2-(1-(3-(TETRAHYDRO-2H-PYRAN-4-YL)PYRAZIN-2-YL)AZETIDIN-3-YL)-1H-BENZO[D]IMIDAZOLE]",1160

# More lines, now with the values ahead:
row,IC50 [nM],Structure (SMILES)
1,689,c1ccc2nc(C3CN(c4nccnc4N4CCCCC4)C3)ccc2c1 [Example 57]
2,68,"c1cnc(N2CC(c3ccc4ccccc4n3)C2)c(N2CCCCC2)c1 [Example 59, 2′-(3-QUINOLIN-2-YL-AZETIDIN-1-YL)-3,4,5,6-TETRAHYDRO-2H-[1,3′]BIPYRIDINYL]"
